Source: PubChem BioAssay (NCI)
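A five-concentration, 48-hour dose response in 96-well plates underlies each endpoint, interpolated linearly between surrounding concentrations. GI50: concentration for 50% inhibition of growth. TGI: concentration producing complete growth inhibition.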

Key:
Experiment in all cases: NCI-60 cell line screen, 48 h
[1] = tested on: MOLT-4 leukemia
[2] = tested on: MDA-MB-231 breast
[3] = tested on: MCF7 breast
[4] = tested on: NCI-H522 lung
[5] = tested on: HS 578T breast
[6] = tested on: UO-31 renal
[7] = tested on: SN12C renal
[8] = tested on: LOX IMVI melanoma
[9] = tested on: CAKI-1 renal
[10] = tested on: COLO 205 colon
[11] = tested on: HCC-2998 colon
[12] = tested on: RXF 393 renal
[13] = tested on: OVCAR-3 ovarian
[14] = tested on: OVCAR-8 ovarian
[15] = tested on: SF-268 CNS
[16] = tested on: HL-60(TB) leukemia
[17] = tested on: HOP-92 NSCLC
[18] = tested on: A549 NSCLC
[19] = tested on: OVCAR-5 ovarian
[20] = tested on: MDA-MB-435
[21] = tested on: IGROV1 ovarian
[22] = tested on: UACC-257 melanoma
[23] = tested on: 786-0 renal
[24] = tested on: SNB-75 CNS
[25] = tested on: UACC-62 melanoma
[26] = tested on: SK-MEL-28 melanoma
[27] = tested on: NCI/ADR-RES ovarian
[28] = tested on: HCT-116 colon
[29] = tested on: RPMI-8226 leukemia
[30] = tested on: HOP-62 NSCLC
[31] = tested on: PC-3 prostate
[32] = tested on: MALME-3M melanoma
[33] = tested on: NCI-H23 lung
[34] = tested on: KM12 colon
[35] = tested on: BT-549 breast
[36] = tested on: HT29 colon
[37] = tested on: SR leukemia
[38] = tested on: ACHN renal
[39] = tested on: NCI-H460 lung
[40] = tested on: SK-MEL-2 melanoma
[41] = tested on: T-47D breast
[42] = tested on: HCT-15 colon
[43] = tested on: DU-145 prostate
[44] = tested on: CCRF-CEM leukemia
[45] = tested on: EKVX NSCLC
[46] = tested on: SK-OV-3 ovarian
[47] = tested on: MDA-N
[48] = tested on: M14 melanoma
[49] = tested on: NCI-H226 lung
[50] = tested on: SF-295 CNS
[51] = tested on: U251 CNS
[52] = tested on: A498 renal
[53] = tested on: SW-620 colon
[54] = tested on: OVCAR-4 ovarian
[55] = tested on: TK-10 renal
[56] = tested on: SNB-19 CNS
[57] = tested on: SF-539 CNS
[58] = tested on: SK-MEL-5 melanoma
[59] = tested on: K-562 leukemia

CC[C@@]1(O)C(=O)NCc2c1cc1n(c2=O)Cc2cc3cc4c(cc3nc2-1)OCO4
GI50 [1]: 0.118 µM | TGI [1]: 0.414 µM | GI50 [2]: > 48.2 µM | TGI [2]: > 100 µM | GI50 [3]: 0.217 µM | TGI [3]: > 100 µM | GI50 [4]: 0.517 µM | TGI [4]: 54.6 µM | GI50 [5]: 94.1 µM | TGI [5]: > 100 µM | GI50 [6]: 1.48 µM | TGI [6]: > 33.1 µM | GI50 [7]: 0.328 µM | TGI [7]: 11.7 µM | GI50 [8]: 0.296 µM | TGI [8]: 18.2 µM | GI50 [9]: 0.417 µM | TGI [9]: > 9.04 µM | GI50 [10]: 22.7 µM | TGI [10]: > 100 µM | GI50 [11]: 0.984 µM | TGI [11]: > 89.1 µM | GI50 [12]: 0.803 µM | TGI [12]: > 100 µM | GI50 [13]: 14.2 µM | TGI [13]: > 95.5 µM | GI50 [14]: 0.391 µM | TGI [14]: 6.99 µM | GI50 [15]: 0.236 µM | TGI [15]: > 30.7 µM | GI50 [16]: 0.0462 µM | TGI [16]: 0.502 µM | GI50 [17]: 1.22 µM | TGI [17]: > 26.9 µM | GI50 [18]: 0.618 µM | TGI [18]: > 73.4 µM | GI50 [19]: 9.39 µM | TGI [19]: > 88.2 µM | GI50 [20]: 2.11 µM | TGI [20]: > 100 µM | GI50 [21]: 1.59 µM | TGI [21]: 63.4 µM | GI50 [22]: 14.1 µM | TGI [22]: > 100 µM | GI50 [23]: 0.672 µM | TGI [23]: 14.4 µM | GI50 [24]: 0.5 µM | TGI [24]: 3.57 µM | GI50 [25]: 0.243 µM | TGI [25]: 29.4 µM | GI50 [26]: 45.1 µM | TGI [26]: > 100 µM | GI50 [27]: 0.236 µM | TGI [27]: 1.56 µM | GI50 [28]: 0.883 µM | TGI [28]: 46 µM | GI50 [29]: 0.293 µM | TGI [29]: 9.02 µM | GI50 [30]: 0.235 µM | TGI [30]: 20.4 µM | GI50 [31]: 2.38 µM | TGI [31]: > 100 µM | GI50 [32]: 1.47 µM | TGI [32]: 35.7 µM | GI50 [33]: 0.798 µM | TGI [33]: > 13.2 µM | GI50 [34]: 11.7 µM | TGI [34]: > 100 µM | GI50 [35]: 4.15 µM | TGI [35]: > 100 µM | GI50 [36]: 2.02 µM | TGI [36]: 37.3 µM | GI50 [37]: < 0.0176 µM | TGI [37]: 0.2 µM | GI50 [38]: 0.398 µM | TGI [38]: > 13.2 µM | GI50 [39]: 0.219 µM | TGI [39]: 16.9 µM | GI50 [40]: 67.5 µM | TGI [40]: > 100 µM | GI50 [41]: 0.842 µM | TGI [41]: > 27.1 µM | GI50 [42]: 8.58 µM | TGI [42]: > 100 µM | GI50 [43]: 0.13 µM | TGI [43]: 2.02 µM | GI50 [44]: < 0.0128 µM | TGI [44]: 0.148 µM | GI50 [45]: 12.9 µM | TGI [45]: > 87.1 µM | GI50 [46]: 1.5 µM | TGI [46]: > 82.2 µM | GI50 [47]: 3.23 µM | TGI [47]: > 100 µM | GI50 [48]: 0.441 µM | TGI [48]: > 39.2 µM | GI50 [49]: 2 µM | TGI [49]: > 85.1 µM | GI50 [50]: 0.148 µM | TGI [50]: 25.7 µM | GI50 [51]: 0.408 µM | TGI [51]: 12.9 µM | GI50 [52]: 0.963 µM | TGI [52]: 8.73 µM | GI50 [53]: 0.352 µM | TGI [53]: > 26.3 µM | GI50 [54]: 22.5 µM | TGI [54]: 97.8 µM | GI50 [55]: 69.9 µM | TGI [55]: > 100 µM | GI50 [56]: 0.379 µM | TGI [56]: > 61.5 µM | GI50 [57]: 0.374 µM | TGI [57]: 4.57 µM | GI50 [58]: 1.23 µM | TGI [58]: 27.8 µM | GI50 [59]: 0.164 µM | TGI [59]: > 100 µM

O=C(CNC(=O)OCc1ccccc1)NCCCCC(NC(=O)OCc1ccccc1)C(=O)O (configuration not stated)
TGI [1]: > 100 µM | TGI [2]: > 100 µM | TGI [3]: > 100 µM | TGI [4]: > 100 µM | TGI [5]: > 100 µM | TGI [6]: > 100 µM | TGI [7]: > 100 µM | TGI [8]: > 100 µM | TGI [9]: > 100 µM | TGI [10]: > 100 µM | TGI [11]: > 100 µM | TGI [12]: > 100 µM | TGI [13]: > 100 µM | TGI [14]: > 100 µM | TGI [15]: > 100 µM | TGI [16]: > 100 µM | TGI [17]: > 100 µM | TGI [18]: > 100 µM | TGI [19]: > 100 µM | TGI [20]: > 100 µM | TGI [21]: > 100 µM | TGI [22]: > 100 µM | TGI [23]: > 100 µM | TGI [24]: > 100 µM | TGI [25]: > 100 µM | TGI [26]: > 100 µM | TGI [27]: > 100 µM | TGI [28]: > 100 µM | TGI [29]: > 100 µM | TGI [30]: > 100 µM | TGI [31]: > 100 µM | TGI [32]: > 100 µM | TGI [33]: > 100 µM | TGI [34]: > 100 µM | TGI [35]: > 100 µM | TGI [36]: > 100 µM | TGI [37]: > 100 µM | TGI [38]: > 100 µM | TGI [39]: > 100 µM | TGI [40]: > 100 µM | TGI [41]: > 100 µM | TGI [42]: > 100 µM | TGI [43]: > 100 µM | TGI [44]: > 100 µM | TGI [45]: > 100 µM | TGI [46]: > 100 µM | TGI [47]: > 100 µM | TGI [48]: > 100 µM | TGI [49]: > 100 µM | TGI [50]: > 100 µM | TGI [51]: > 100 µM | TGI [52]: > 100 µM | TGI [53]: > 100 µM | TGI [54]: > 100 µM | TGI [55]: > 100 µM | TGI [56]: > 100 µM | TGI [57]: > 100 µM | TGI [58]: > 100 µM | TGI [59]: > 100 µM
